# In patent US9469615B2, “Quinoxalines and AZA-quinoxalines as CRTH2 receptor modulators” (Merck Sharp & Dohme Corp., priority 2010, dated 2016):
# pKi: −log10 of the molar value.
# Biological target: T1, hCRTH2 (Homo sapiens, UniProt Q9Y5Y4)
# T1 construct: expressed in transfected cells; host or cells: HEK (human embryonic kidney) cells expressing hCRTH2; membrane preparation
# T1 sequence (Q9Y5Y4 1-395): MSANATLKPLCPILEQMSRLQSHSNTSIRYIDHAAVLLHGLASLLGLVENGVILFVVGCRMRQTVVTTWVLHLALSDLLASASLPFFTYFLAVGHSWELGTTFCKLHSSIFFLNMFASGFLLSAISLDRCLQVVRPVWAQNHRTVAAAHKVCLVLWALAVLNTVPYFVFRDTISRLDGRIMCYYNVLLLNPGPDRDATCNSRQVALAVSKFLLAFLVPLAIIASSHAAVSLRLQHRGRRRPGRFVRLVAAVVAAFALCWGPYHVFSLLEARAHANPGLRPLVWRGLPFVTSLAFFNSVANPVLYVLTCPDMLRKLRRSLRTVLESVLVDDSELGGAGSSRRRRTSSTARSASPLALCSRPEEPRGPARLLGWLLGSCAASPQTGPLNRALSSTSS
# Experiment: Radioligand binding assay ([3H]PGD2 competition, HEK-hCRTH2 membranes)
# Conditions: [3H]PGD2 competition, Table B
# Method in brief: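 Competition binding with 3.0 nM [3H]PGD2 and 8-20 μg HEK-hCRTH2 membrane protein in 50 mM Tris-HCl pH 7.4, 1 mM EDTA, 2 mM MnCl2, 1% Me2SO, 60 min at room temperature. Nonspecific binding defined with 10 μM PGD2; bound radioactivity counted after filtration.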
row,pKi,Structure (SMILES)
1,7.70 to 8.68,"Cc1ccc(N2CCN(C(=O)c3ccc4nc(-c5ccc(F)cc5)c(CCCCC(=O)O)nc4c3)CC2)cc1 [compound 369, 5-(3-(4-fluorophenyl)-7-(4-(p-tolyl)piperazine-1-carbonyl)quinoxalin-2-yl)pentanoic acid]"
2,6.15 to 6.70,"O=C(O)CCCCc1nc2cc(C(=O)N[C@@H]3CCCc4cccnc43)ccc2nc1-c1ccccc1 [compound 370, (R)-8-(3-(4-carboxybutyl)-2-phenylquinoxaline-6-carboxamido)-5,6,7,8-tetrahydroquinolin-1-ium 2,2,2-trifluoroacetic acid]"
3,7.70 to 8.68,"O=C(O)CCCCc1nc2cc(C(=O)N[C@H]3CCCc4cccnc43)ccc2nc1-c1ccccc1 [compound 371, (S)-8-(3-(4-carboxybutyl)-2-phenylquinoxaline-6-carboxamido)-5,6,7,8-tetrahydroquinolin-1-ium 2,2,2-trifluoroacetic acid]"
4,7.70 to 8.68,"COc1ccc(C2CN(C(=O)c3ccc4nc(-c5ccc(F)cc5)c(CCCCC(=O)O)nc4c3)C2)cc1 [compound 372, 5-(3-(4-fluorophenyl)-7-(3-(4-methoxyphenyl)azetidine-1-carbonyl)quinoxalin-2-yl)pentanoic acid]"
5,7.70 to 8.68,"COc1cccc(C2CN(C(=O)c3ccc4nc(-c5ccc(F)cc5)c(CCCCC(=O)O)nc4c3)C2)c1 [compound 373, 5-(3-(4-fluorophenyl)-7-(3-(3-methoxyphenyl)azetidine-1-carbonyl)quinoxalin-2-yl)pentanoic acid]"
6,8.70 to 10.00,"C[C@@H](NC(=O)c1ccc2nc(-c3ccc(Cl)cc3)c(CCCCC(=O)O)nc2c1)c1ccc(F)c(F)c1 [compound 374, (R)-5-(3-(4-chlorophenyl)-7-((1-(3,4-difluorophenyl)ethyl)carbamoyl)quinoxalin-2-yl)pentanoic acid]"
7,8.70 to 10.00,"C[C@H](NC(=O)c1ccc2nc(-c3ccc(Cl)cc3)c(CCCCC(=O)O)nc2c1)c1ccc(F)c(F)c1 [compound 375, (S)-5-(3-(4-chlorophenyl)-7-((1-(3,4-difluorophenyl)ethyl)carbamoyl)quinoxalin-2-yl)pentanoic acid]"
8,7.70 to 8.68,"CC[C@@H](NC(=O)c1ccc2nc(-c3ccc(Cl)cc3)c(CCCCC(=O)O)nc2c1)c1ccc(F)cc1 [compound 376, (R)-5-(3-(4-chlorophenyl)-7-((1-(4-fluorophenyl)propyl)carbamoyl)quinoxalin-2-yl)pentanoic acid]"
9,7.70 to 8.68,CC[C@H](NC(=O)c1ccc2nc(-c3ccc(Cl)cc3)c(CCCCC(=O)O)nc2c1)c1ccc(F)cc1 [compound 377]
10,6.70 to 7.70,"CN(C(=O)c1ccc2nc(-c3ccccc3)c(CCCCC(=O)O)nc2c1)[C@@H]1CCCc2ccccc21 [compound 378, (R)-5-(7-(methyl(1,2,3,4-tetrahydronaphthalen-1-yl)carbamoyl)-3-phenylquinoxalin-2-yl)pentanoic acid]"
11,7.70 to 8.68,"CN(C(=O)c1ccc2nc(-c3ccccc3)c(CCCCC(=O)O)nc2c1)[C@@H]1CCCc2cc(F)ccc21 [compound 379, (R)-5-(7-((6-fluoro-1,2,3,4-tetrahydronaphthalen-1-yl)(methyl)carbamoyl)-3-phenylquinoxalin-2-yl)pentanoic acid]"
12,7.70 to 8.68,"CN(C(=O)c1ccc2nc(-c3ccccc3)c(CCCCC(=O)O)nc2c1)[C@@H]1CCCc2cc(Cl)ccc21 [compound 380, (R)-5-(7-((6-chloro-1,2,3,4-tetrahydronaphthalen-1-yl)(methyl)carbamoyl)-3-phenylquinoxalin-2-yl)pentanoic acid]"
13,8.70 to 10.00,"O=C(O)CCCCc1nc2cc(C(=O)N[C@@H]3CCc4cc(F)ccc43)ccc2nc1-c1ccc(Cl)cc1 [compound 381, (R)-5-(3-(4-chlorophenyl)-7-((5-fluoro-2,3-dihydro-1H-inden-1-yl)carbamoyl)quinoxalin-2-yl)pentanoic acid]"
14,8.70 to 10.00,"O=C(O)CCCCc1nc2cc(C(=O)N[C@H]3CCc4cc(F)ccc43)ccc2nc1-c1ccc(Cl)cc1 [compound 382, (S)-5-(3-(4-chlorophenyl)-7-((5-fluoro-2,3-dihydro-1H-inden-1-yl)carbamoyl)quinoxalin-2-yl)pentanoic acid]"
15,8.70 to 10.00,"O=C(O)CCCCc1nc2cc(C(=O)N[C@@H]3CCc4cc(Cl)ccc43)ccc2nc1-c1ccc(Cl)cc1 [compound 383, (R)-5-(7-((5-chloro-2,3-dihydro-1H-inden-1-yl)carbamoyl)-3-(4-chlorophenyl)quinoxalin-2-yl)pentanoic acid]"
16,8.70 to 10.00,"O=C(O)CCCCc1nc2cc(C(=O)N[C@H]3CCc4cc(Cl)ccc43)ccc2nc1-c1ccc(Cl)cc1 [compound 384, (S)-5-(7-((5-chloro-2,3-dihydro-1H-inden-1-yl)carbamoyl)-3-(4-chlorophenyl)quinoxalin-2-yl)pentanoic acid]"

row,pKi,Structure (SMILES)
1,7.70 to 8.68,"O=C(O)CCCCc1nc2cc(C(=O)N[C@H]3CCCc4cc(F)ccc43)ccc2nc1-c1ccccc1 [compound 385, (S)-5-(7-((6-fluoro-1,2,3,4-tetrahydronaphthalen-1-yl)carbamoyl)-3-phenylquinoxalin-2-yl)pentanoic acid]"
2,8.70 to 10.00,"O=C(O)CCCCc1nc2cc(C(=O)N[C@@H]3CCCc4cc(Cl)ccc43)ccc2nc1-c1ccccc1 [compound 386, (R)-5-(7-((6-chloro-1,2,3,4-tetrahydronaphthalen-1-yl)carbamoyl)-3-phenylquinoxalin-2-yl)pentanoic acid]"
3,7.70 to 8.68,"O=C(O)CCCCc1nc2cc(C(=O)N[C@H]3CCCc4cc(Cl)ccc43)ccc2nc1-c1ccccc1 [compound 387, (S)-5-(7-((6-chloro-1,2,3,4-tetrahydronaphthalen-1-yl)carbamoyl)-3-phenylquinoxalin-2-yl)pentanoic acid]"
4,7.70 to 8.68,"O=C(O)CCCCc1nc2cc(C(=O)N[C@H]3CCCc4ccccc43)ccc2nc1-c1ccccc1 [compound 388, (S)-5-(3-phenyl-7-((1,2,3,4-tetrahydronaphthalen-1-yl)carbamoyl)quinoxalin-2-yl)pentanoic acid]"
5,8.70 to 10.00,"COc1ccc(C2CN(C(=O)c3ccc4nc(-c5ccccc5)c(CCCCC(=O)O)nc4c3)C2)cc1 [compound 389, 5-(7-(3-(4-methoxyphenyl)azetidine-1-carbonyl)-3-phenylquinoxalin-2-yl)pentanoic acid]"
6,8.70 to 10.00,"COc1cccc(C2CN(C(=O)c3ccc4nc(-c5ccccc5)c(CCCCC(=O)O)nc4c3)C2)c1 [compound 390, 5-(7-(3-(3-methoxyphenyl)azetidine-1-carbonyl)-3-phenylquinoxalin-2-yl)pentanoic acid]"
7,7.70 to 8.68,"CC(CCCc1nc2cc(C(=O)N[C@H](C)c3ccc(Cl)cc3)ccc2nc1-c1ccc(Cl)cc1)C(=O)O (stereo partly drawn) [compound 391, 5-(3-(4-chlorophenyl)-7-(((R)-1-(4-chlorophenyl)ethyl)carbamoyl)quinoxalin-2-yl)-2-methylpentanoic acid]"
8,7.70 to 8.68,"CC(CCCc1nc2cc(C(=O)N[C@@H](C)c3ccc(Cl)cc3)ccc2nc1-c1ccc(Cl)cc1)C(=O)O (stereo partly drawn) [compound 392, 5-(3-(4-chlorophenyl)-7-(((S)-1-(4-chlorophenyl)ethyl)carbamoyl)quinoxalin-2-yl)-2-methylpentanoic acid]"
9,7.70 to 8.68,"Cc1ccc(CNC(=O)c2ccc3nc(-c4ccc(Cl)cc4)c(CC4CCC(C(=O)O)C4)nc3c2)cc1 (stereo not shown) [compound 393, 3-((3-(4-chlorophenyl)-7-((4-methylbenzyl)carbamoyl)quinoxalin-2-yl)methyl)cyclopentane-carboxylic acid]"
10,7.70 to 8.68,"C[C@@H](NC(=O)c1ccc2nc(-c3ccc(Cl)cc3)c(CC3CCC(C(=O)O)C3)nc2c1)c1ccccc1 (stereo partly drawn) [compound 394, 3-((3-(4-chlorophenyl)-7-(((R)-1-phenylethyl)carbamoyl)quinoxalin-2-yl)methyl)cyclopentane-carboxylic acid]"
11,7.70 to 8.68,"O=C(N[C@H](c1ccccc1)C(F)(F)F)c1ccc2nc(-c3ccc(Cl)cc3)c(CC3CCC(C(=O)O)C3)nc2c1 (stereo partly drawn) [compound 395, 3-((3-(4-chlorophenyl)-7-(((R)-2,2,2-trifluoro-1-phenylethyl)carbamoyl)quinoxalin-2-yl)methyl)cyclopentane-carboxylic acid]"
12,7.70 to 8.68,"O=C(O)C1CCC(Cc2nc3cc(C(=O)N4CC(c5ccc(F)cc5)C4)ccc3nc2-c2ccc(Cl)cc2)C1 (stereo not shown) [compound 396, 3-((3-(4-chlorophenyl)-7-(3-(4-fluorophenyl)azetidine-1-carbonyl)quinoxalin-2-yl)methyl)cyclopentanecarboxylic acid]"
13,7.70 to 8.68,"O=C(O)C1CCC(Cc2nc3cc(C(=O)N4CC(c5cccc(F)c5)C4)ccc3nc2-c2ccc(Cl)cc2)C1 (stereo not shown) [compound 397, 3-((3-(4-chlorophenyl)-7-(3-(3-fluorophenyl)azetidine-1-carbonyl)quinoxalin-2-yl)methyl)cyclopentane-carboxylic acid]"
14,7.70 to 8.68,"O=C(O)C1CCC(Cc2nc3cc(C(=O)N4CC(c5ccc(F)c(F)c5)C4)ccc3nc2-c2ccc(Cl)cc2)C1 (stereo not shown) [compound 398, 3-((3-(4-chlorophenyl)-7-(3-(3,4-difluorophenyl)azetidine-1-carbonyl)quinoxalin-2-yl)methyl)cyclopentane-carboxylic acid]"
15,7.70 to 8.68,"CC(C)[C@@H](NC(=O)c1ccc2nc(-c3ccc(Cl)cc3)c(CCCCC(=O)O)nc2c1)c1ccc(F)cc1 [compound 399, (R)-5-(3-(4-chlorophenyl)-7-((1-(4-fluorophenyl)-2-methylpropyl)carbamoyl)quinoxalin-2-yl) pentanoic acid]"
